Laboratory results as given in US20020115661A1, “Method for treating chronic obstructive pulmonary disease” (priority 2000, published 2002).

Experiments:
human ETB receptors = target: T1, human ETB receptors (Homo sapiens, UniProt P24530); assay: [125I]ET-3 binding to recombinant human ETB receptors (CHO cell membranes); details: Table 1 comparison with known endothelin antagonists; read-out: Receptor Inhibition, Human ETB
T1 construct: expressed in transfected cells; host or cells: CHO cells
T1 sequence (P24530 27-442): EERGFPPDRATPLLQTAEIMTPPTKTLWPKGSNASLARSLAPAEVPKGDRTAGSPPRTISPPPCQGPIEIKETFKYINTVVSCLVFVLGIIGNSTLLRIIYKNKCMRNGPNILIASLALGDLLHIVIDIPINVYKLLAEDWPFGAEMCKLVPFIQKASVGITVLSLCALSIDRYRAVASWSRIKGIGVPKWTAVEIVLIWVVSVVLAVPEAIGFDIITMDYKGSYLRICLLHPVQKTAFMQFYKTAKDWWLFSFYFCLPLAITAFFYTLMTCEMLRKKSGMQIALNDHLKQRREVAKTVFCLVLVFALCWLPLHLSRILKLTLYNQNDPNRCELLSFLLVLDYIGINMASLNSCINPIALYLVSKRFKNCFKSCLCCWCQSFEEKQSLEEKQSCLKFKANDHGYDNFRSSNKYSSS

human ETA receptors = target: T2, human ETA receptors (Homo sapiens, UniProt P25101); assay: [125I]ET-1 binding to recombinant human ETA receptors (Ltk- cell membranes); details: for IC50: Table 1 comparison with known endothelin antagonists, read-out: Receptor Inhibition, Human ETA; for ETB/ETA selectivity ratio: human ETB / human ETA receptor inhibition
T2 construct: expressed in transfected cells; host or cells: Ltk- cells (mouse fibroblast, thymidine kinase deficient)
T2 sequence (P25101 21-427): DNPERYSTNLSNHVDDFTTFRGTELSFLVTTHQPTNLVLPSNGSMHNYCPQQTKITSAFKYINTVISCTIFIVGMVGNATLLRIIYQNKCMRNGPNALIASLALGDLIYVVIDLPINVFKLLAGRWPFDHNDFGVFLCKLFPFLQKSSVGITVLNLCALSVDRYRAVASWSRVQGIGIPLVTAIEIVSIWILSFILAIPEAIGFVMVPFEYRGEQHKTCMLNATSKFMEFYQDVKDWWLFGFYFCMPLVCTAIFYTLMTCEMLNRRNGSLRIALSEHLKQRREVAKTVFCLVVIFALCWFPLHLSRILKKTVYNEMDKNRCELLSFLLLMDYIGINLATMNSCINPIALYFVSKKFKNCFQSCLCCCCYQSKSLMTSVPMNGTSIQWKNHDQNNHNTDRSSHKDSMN

clinical = details: human, plasma, oral, 2 mg

Structure (SMILES) | IC50 (human ETB receptors) | IC50 (human ETA receptors) | ETB/ETA selectivity ratio (human ETA receptors) | AUC(0-t) (clinical) | Cmax (clinical)
COc1cc(OC)nc(O[C@H](C(=O)O)C(OC)(c2ccccc2)c2ccccc2)n1 [Darusentan] | 184 nM | 1.4 nM | 131 | – | –
CCCOc1ccc2c(c1)[C@@H](c1ccc(OC)cc1OCCO)[C@H](C(=O)O)[C@H]2c1ccc2c(c1)OCO2 [Enrasentan] | 111 nM | 0.1 nM | 1110 | – | –
Cc1ncc2n1-c1ccc(Cl)cc1C(c1ccccc1F)=NC2 [midazolam] | – | – | – | 15.2 ng·h/mL | 7.65 ng/mL
